The values that follow come from patent US5270302A, “Derivatives of tetrapeptides as CCK agonists” (priority 1991, dated 1993).

*1 amine or outer side, *2 acyl side, *3 side chain or, on linkers, in order; H or OH if unused. Where a SMILES comes first, the peptide text is derived from it. Side-chain parts run from the residue outwards. [ ]: non-standard residue; d: D form. The star is where a group is joined. ξ: configuration not given here. ξαMeW = CC(N)(Cc1c[nH]c2ccccc12)C(=O)O; NMeF = CN[C@@H](Cc1ccccc1)C(=O)O; NH(2-Me-phenyl) = Cc1ccccc1N*; Boc = CC(C)(C)OC(=O)*; CO = O=C([*:1])[*:2]

In experiment [1] the test system is mice. Description: Measurement of plasma insulin in mice following treatment with CCK-8 or a CCK agonist. The class given is in vivo. The settings on record: tail vein injection, 2 minutes. On the procedure: Measurement of Plasma Insulin in Mice Following Treatment With CCK-8 or a CCK Agonist
Male mice, weighing from about 20 to about 30 g each, were used in all experiments. The animals were fed with laboratory lab chow and water ad libitum. CCK-8 or one the CCK agonist compounds of this invention was injected into the tail vein. Two minutes later, the animals were sacrificed and the blood was collected in 1.5 mL heparinized polypropylene tubes. The tubes were centrifuged at 10,000×g for 2 minutes. The insulin levels were determined in the supernatant, i.e., plasma, by radioimmuno assay (RIA) using kits obtained from Radioassay Systems Laboratory (Carson, CA.) or Novo Biolabs (Danbury, Conn.). The results of this assay are shown in Table 3 and are expressed as the percent increase in insulin secretion over insulin secretion observed in mice injected with a saline solution. Each dose was tested in at least six mice and the values presented are averages for the group of mice tested at each dose.

The subject of experiment [2] is mice. The experiment in a line: Behavioral effect of CCK agonists in mice (suppression of locomotor activity). The experiment is classed as in vivo.
Description: Behavioral Effect of CCK Agonists in Mice
The animals were placed on a slightly elevated metal grid and restrained by the thumb and forefinger at the level of the shoulders, thus immobilizing their heads. Injections were made with a 30 gauge needle with a "stop" consisting of a piece of tygon tubing to limit penetration of the needle to about 4.5 mm below the surface of the skin. The needle was inserted perpendicular to the skull at a midline point equidistant from each eye and an equal distance posterior from the level of the eyes such that the injection site and the two eyes form an equilateral triangle. The injection volume (5 ul) was expelled smoothly over a period of approximately 1 second.
Immediately after the injections the mice were placed in their cages and allowed a 15 minute recovery period prior to the beginning of behavioral observations.
For the behavioral observations, the mice were placed in clear plastic cages. Each cage measured 19×26×15 cm and contained a 60-tube polypropylene test tube rack place on end in the center of the cage to enhance exploratory activity. Observations were made every 30 seconds for a period of 30 minutes. […] Differences among groups were analyzed by Newman-Kewels analysis and a probability level of p<0.05 was accepted as significant.
Experiment [3] deals with rats. Description: Feeding effect of CCK agonists in food-deprived rats. The experiment is classed as in vivo. The settings on record: i.p., dose 20 μg/kg, one hour feeding, vehicle 9.40 grams. The protocol:
Feeding Effect of CCK Agonists in Rats
Forty male, Sprague-Dawley rats were subjected to a 23 hour food deprivation schedule for four days. On the fifth day, the animals were divided into five equal groups based on their previous (4th day) food intake. […] The amount of food consumed was measured after subtraction of spillage.

In experiment [4] the test system is rats. Description: Feeding effects of chronic administration of CCK-8 and CCK agonists in rat (liquid diet). The class given is in vivo. The note with it: ip, 10 nmol/kg, 11 days of testing. On the procedure: Feeding Effects of Chronic Administration of CCK-8 and CCK Agonists in Rat
Adult male Sprague-Dawley rats, weighing approximately 250 g, were placed on a restricted diet. Rats were weighed every morning and were allowed access to a liquid diet (Ensure®) for 60 minutes in the morning and 45 minutes in the late afternoon; intakes were recorded every 15 minutes. […] Six to 10 minutes later, the rats were presented with the diet, and intakes were recorded as usual. No injections were administered prior to the PM feeding. After 11 days of testing, half of the animals were sacrificed while the remaining rats were withdrawn from treatment and injected with vehicle for 4 days.

The test system of another experiment is guinea pig gallbladder. The note with it: read-out: EC50 for contraction; isolated guinea pig gallbladder, 37° C.; 50% of the compound's own maximal contraction. The protocol:
Guinea Pig Gallbladder Contraction
Gallbladders were obtained from male guinea pigs (250-300 gm). The bile was emptied by a small incision and the gallbladder was suspended in an organ bath. The tissue was maintained at 37° C., suspended in Krebs-Ringer buffer (mM: NaCl, 118; KCl, 4.7; CaCl2, 2.5; MgCl2, 1.2; NaH2 PO4, 1.2; NaHCO3, 25; choline chloride, 30 mM; glucose, 11) and bubbled with 95% O2 -5% CO2. Isometric contractions were recorded with a Grass polygraph. Baseline tension was set at 0.3 grams. After equilibration for approximately 30 minutes, CCK-8 (20 nM) was introduced and tensions were recorded. After reaching maximal contractions (about 5 minutes), the drug was washed out by overflow. The CCK-8 addition was repeated twice to ensure constant force of contraction.

The target of the next experiment is T1, Type-A CCK receptor (Cavia porcellus, UniProt Q63931).
T1 construct: Cortical and pancreatic membranes were prepared as described; from tissue; host or cells: guinea pig pancreas membranes
T1 sequence (Q63931 1-430): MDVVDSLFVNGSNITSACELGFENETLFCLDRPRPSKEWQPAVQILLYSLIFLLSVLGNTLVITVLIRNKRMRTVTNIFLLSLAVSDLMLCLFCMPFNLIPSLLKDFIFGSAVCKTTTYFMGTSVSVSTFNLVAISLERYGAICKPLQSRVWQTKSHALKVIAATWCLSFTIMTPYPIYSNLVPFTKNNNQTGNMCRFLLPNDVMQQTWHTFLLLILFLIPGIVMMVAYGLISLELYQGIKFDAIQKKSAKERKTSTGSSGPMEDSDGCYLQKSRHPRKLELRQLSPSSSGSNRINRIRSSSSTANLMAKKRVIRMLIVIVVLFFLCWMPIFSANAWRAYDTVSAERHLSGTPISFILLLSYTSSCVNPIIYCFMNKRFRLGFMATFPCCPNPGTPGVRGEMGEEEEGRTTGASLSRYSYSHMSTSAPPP
The experiment in a line: Radioligand binding of [125I]BH-CCK-8 in guinea pig pancreatic membrane preparations. The settings on record: IC50 (nM) 125I-BH-CCK-8 Type-A receptor, guinea pig pancreatic membranes, 37° C., 150 min. The procedure, abridged:
(§1)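 Membranes came from male guinea pig pancreas (type A) or cerebral cortex (type B) and were resuspended in pH 7.4 HEPES-EGTA-salt buffer containing bestatin and phosphoramidon. Test compounds competed with [125I]BH-CCK-8 in 0.1% BSA: cortex 150 min at 30 °C, pancreas 150 min at 37 °C. Reactions ended by filtration; IC50 from Hill analysis.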

A further experiment addresses T2, Type-B CCK receptor (Cavia porcellus, UniProt H0VZC5).
T2 construct: Cortical and pancreatic membranes were prepared as described; from tissue; host or cells: guinea pig cerebral cortex membranes
T2 sequence (H0VZC5 1-426): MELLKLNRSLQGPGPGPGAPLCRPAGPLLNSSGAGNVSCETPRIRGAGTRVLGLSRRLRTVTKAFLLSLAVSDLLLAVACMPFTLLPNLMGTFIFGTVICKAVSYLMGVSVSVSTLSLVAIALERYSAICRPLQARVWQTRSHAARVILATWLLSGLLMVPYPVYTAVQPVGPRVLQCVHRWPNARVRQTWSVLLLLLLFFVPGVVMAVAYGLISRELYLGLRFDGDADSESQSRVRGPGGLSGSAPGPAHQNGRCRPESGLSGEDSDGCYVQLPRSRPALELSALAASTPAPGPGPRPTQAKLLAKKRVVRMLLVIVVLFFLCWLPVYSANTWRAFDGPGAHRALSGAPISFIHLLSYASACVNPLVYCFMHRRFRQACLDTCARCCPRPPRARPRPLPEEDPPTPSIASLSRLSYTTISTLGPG
Description: Radioligand binding of [125I]BH-CCK-8 in guinea pig cerebral cortical membrane preparations. The settings on record: IC50 (nM) 125I-BH-CCK-8 Type-B receptor, guinea pig cortical membranes, 30° C., 150 minutes. The essentials:
as §1

The subject of experiment [5] is rats. The experiment in a line: Feeding effects of acute administration of CCK agonists in rats (liquid diet). The class given is in vivo. The settings on record: i.p., acute (1 day). From the text:
Feeding Effects of Acute Administration of CCK Agonists in Rats
The experimental paradigm used in the above-mentioned chronic feeding studies was employed to establish dose reponses for CCK agonists of this invention on an acute (1 day) basis. Following an 8-day diet acclimation period, the rats were weighed and injected with vehicle. CCK-8 or test compound (see Table 7) at doses ranging from 1-1000 nmol/kg (i.p.). Six to ten minutes later, the rats were presented with the diet and intakes were recorded. No injections were administered prior to the P.M. feeding. Mean A.M. intakes as a percent of control were plotted versus log dose (nm/kg) to establish the dose response curve.

The target of the next experiment is T3, guinea pig acini (Cavia porcellus, UniProt Q63931).
T3 sequence (Q63931 1-430): T1 sequence (Q63931 1-430)
The experiment in a line: Amylase release assay in guinea pig pancreatic acini. The class given is cell-based. The note with it: 30 minutes at 37° C., reference CCK-8 3×10^-10 M.

Description for guinea pig acini: Protocol for Amylase Release Assay
Guinea Pig Acini Preparation
Pancreas was dissected out and connective tissues and blood vessels were removed. The pancreas was cut into small pieces (2 mm) by a scissor and placed in a 15 mL conical plastic tube containing 2.5 mL of Krebs-Ringer HEPES (KRH) buffer plus 400 units per mL of collagenase. […] The buffer was supplemented with 1% MEM vitamins, 1% MEM amino acids and 0.001% aprotinin (pancreatic basic trypsin inhibitor). […] The supernatant was discarded and 6 mL of the KRH was added to the cell pellet. […] This wash procedure was repeated once. The cell pellet from the last centrifugation step was then resuspended in 15 mL of KRH containing 0.1% BSA. […] The filtrate, containing the acini, was centrifuged at 50×g for 3 minutes. The acini were then resuspended in 5 mL of KRH-BSA buffer for 30 minutes at 37° C. under 100% O2, with a change of fresh buffer at 15 minutes.
After the 30 minutes incubation time, the acini was resuspended in 100 volumes of KRH-BSA buffer, containing 3 μM phosphoramidon and 100 μM bestatin. […] Amylase activity in the supernatant and the cell pellet were separately determined after appropriate dilutions in 0.1% Triton X-100® (a non-ionic detergent available from Sigma Chemical Co.), 20 mM NaH2 PO4, pH 7.4, by Abbott Amylase A-gent® test using the Abbott Bichromatic Analyzer 200.

On to `CSCC[C@H](NC(=O)[C@H](Cc1ccc(OS(=O)(=O)O)cc1)NC(=O)[C@@H](N)CC(=O)O)C(=O)NCC(=O)N[C@@H](Cc1c[nH]c2ccccc12)C(=O)N[C@@H](CCSC)C(=O)N[C@@H](CC(=O)O)C(=O)N[C@@H](Cc1ccccc1)C(N)=O` [CCK-8, Asp-Tyr(SO3 H)-Met-Gly-Trp-Met-Asp-PheNH2], for which the “% Increase In Insulin Secretion Versus Saline Control” value with mice [1] (dose 3 nmole/kg) came to 65%; in the experiment with mice [1] (dose 10 nmole/kg), 85%; with mice [1] (dose 30 nmole/kg), 90%; in the experiment with mice [1] (dose 100 nmole/kg) it was 70%. Moreover, the entries for the “Minimal Effective Dose, suppression of locomotor activity” value with mice [2] (ICV administration) and with mice [2] (IP administration) were 3.0 nmol/mouse and 0.001 µmol/kg, respectively. For the same molecule, the “Mean Food Intake” value in the experiment with rats [3] came out at 6.56 grams. Moreover, the “AM liquid food intake versus controls” value in the experiment with rats [4] is “significantly reduced intakes on just the first and last treatment days”. Also, in the experiment with rats [4], the “body weight gain versus controls” value is recorded as “no significant effects on body weight gain”. In addition, in the experiment on guinea pig gallbladder, the EC50 stood at 5.9 nM.

With `Cc1ccccc1NC(=O)NCCCC[C@H](NC(=O)C(C)(N)Cc1c[nH]c2ccccc12)C(=O)N[C@@H](CC(=O)O)C(=O)N[C@@H](Cc1ccccc1)C(N)=O` (stereo partly drawn) [Example 97, D,L-(α-Methyl)Trp-Lys(ε-N-(2-methylphenyl)aminocarbonyl)-Asp-PheNH2] (H-[ξαMeW]K([CO-NH(2-Me-phenyl)])DF-NH2), the IC50 at Type-A CCK receptor was determined as 11 nM. Also, the IC50 at Type-B CCK receptor came out at 2600 nM. Also, in the experiment on rats [5], the “ED25, suppression of feeding (liquid diet)” value is 1.8 nmol/kg and the “ED50, dose required to decrease mean A.M. food intake by 50%” value is recorded as 9.4 nmol/kg.

Turning to “t-BOC-Trp-Nle(6-((2-methylphenyl)aminocarbonyl)oxy)-Asp-(NMe)PheNH2 [Example 114]”, the EC50 on guinea pig acini turned out to be 3 nM.

As to `Cc1ccccc1NC(=O)NCCCC[C@H](NC(=O)[C@H](Cc1c[nH]c2ccccc12)NC(=O)OC(C)(C)C)C(=O)N[C@@H](CC(=O)O)C(=O)N(C)[C@@H](Cc1ccccc1)C(N)=O` [Example 33, t-BOC-Trp-Lys(ε-N-(2-methylphenyl)aminocarbonyl)-Asp-(NMe)PheNH2] (Boc-WK([CO-NH(2-Me-phenyl)])D[NMeF]-NH2), the EC50 in the experiment on guinea pig gallbladder is 10 nM.

Usually EC50 stands for the concentration that produces a half-maximal response. Usually IC50 stands for the concentration at which inhibition is half-maximal.
